Experimental data from PubChem BioAssay AID1918931 (Molecular Pharmacology Branch, DTP, NCI, 2023).

System: 138582-337-R-J1-PDC complex spheroid viability
Test: Anticancer human tumor 138582-337-R-J1-PDC patient-derived Merkel cell tumor cell line growth inhibition
Conditions: for IC50: curve of first compound; for viability, T/C: stronger effect = lower value
How it was run: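 Complex spheroids of tumor cells with HUVEC and human MSCs, exposed to iadademstat combined with other agents. Each agent tested in half-log steps from near clinical Cmax (else 10 microM top), DMSO ≤0.25%.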

[1] = second compound 0.1 µM, first compound 0.00316 µM
[2] = second compound 0.1 µM, first compound 0.01 µM
[3] = second compound 0.1 µM, first compound 0.0316 µM
[4] = second compound 0.1 µM, first compound 0.1 µM
[5] = second compound 0.316 µM, first compound 0.00316 µM
[6] = second compound 0.316 µM, first compound 0.01 µM
[7] = second compound 0.316 µM, first compound 0.0316 µM
[8] = second compound 0.316 µM, first compound 0.1 µM
[9] = second compound 1 µM, first compound 0.00316 µM
[10] = second compound 1 µM, first compound 0.01 µM
[11] = second compound 1 µM, first compound 0.0316 µM
[12] = second compound 1 µM, first compound 0.1 µM
[13] = second compound 3.16 µM, first compound 0.00316 µM
[14] = second compound 3.16 µM, first compound 0.01 µM
[15] = second compound 3.16 µM, first compound 0.0316 µM
[16] = second compound 3.16 µM, first compound 0.1 µM
[17] = second compound 10 µM, first compound 0.00316 µM
[18] = second compound 10 µM, first compound 0.01 µM
[19] = second compound 10 µM, first compound 0.0316 µM
[20] = second compound 10 µM, first compound 0.1 µM
[21] = second compound 0.1 µM, first compound 0.00949 µM
[22] = second compound 0.1 µM, first compound 0.03 µM
[23] = second compound 0.1 µM, first compound 0.0949 µM
[24] = second compound 0.1 µM, first compound 0.3 µM
[25] = second compound 0.316 µM, first compound 0.00949 µM
[26] = second compound 0.316 µM, first compound 0.03 µM
[27] = second compound 0.316 µM, first compound 0.0949 µM
[28] = second compound 0.316 µM, first compound 0.3 µM
[29] = second compound 1 µM, first compound 0.00949 µM
[30] = second compound 1 µM, first compound 0.03 µM
[31] = second compound 1 µM, first compound 0.0949 µM
[32] = second compound 1 µM, first compound 0.3 µM
[33] = second compound 3.16 µM, first compound 0.00949 µM
[34] = second compound 3.16 µM, first compound 0.03 µM
[35] = second compound 3.16 µM, first compound 0.0949 µM
[36] = second compound 3.16 µM, first compound 0.3 µM
[37] = second compound 10 µM, first compound 0.00949 µM
[38] = second compound 10 µM, first compound 0.03 µM
[39] = second compound 10 µM, first compound 0.0949 µM
[40] = second compound 10 µM, first compound 0.3 µM
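For viability, T/C in this document: 100% = DMSO vehicle control viability.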

In the case of `CC[C@@]1(O)C(=O)OCc2c1cc1n(c2=O)Cc2cc3c(CN(C)C)c(O)ccc3nc2-1` + NC1CCC(NC2CC2c2ccccc2)CC1, the IC50 (second compound 0.1 µM) is reported as > 100 nM, the IC50 (second compound 0.316 µM) is reported as > 100 nM and the IC50 (second compound 1 µM) is reported as > 100 nM. For the same compound, the IC50 (second compound 3.16 µM) was > 100 nM, the IC50 (second compound 10 µM) was > 100 nM and the viability, T/C (second compound 0.1 µM, first compound 0.000316 µM) was 91%. For the same compound, the viability, T/C (second compound 0.1 µM, first compound 0.001 µM) was 99.7%, the viability, T/C [1] was 105% and the viability, T/C [2] was 101%. It also gave a viability, T/C [3] of 98.9%, a viability, T/C [4] of 114% and a viability, T/C (second compound 0.316 µM, first compound 0.000316 µM) of 101%. The viability, T/C (second compound 0.316 µM, first compound 0.001 µM) was 96.8%, the viability, T/C [5] was 120% and the viability, T/C [6] was 102%. The viability, T/C [7] was 95.7%, the viability, T/C [8] was 92.2% and the viability, T/C (second compound 1 µM, first compound 0.000316 µM) was 92%. It also gave a viability, T/C (second compound 1 µM, first compound 0.001 µM) of 101%, a viability, T/C [9] of 115% and a viability, T/C [10] of 95.6%. The viability, T/C [11] was 105%, the viability, T/C [12] was 107% and the viability, T/C (second compound 3.16 µM, first compound 0.000316 µM) was 91.2%. The viability, T/C (second compound 3.16 µM, first compound 0.001 µM) was 96.6%, the viability, T/C [13] was 104% and the viability, T/C [14] was 106%. For the same compound, the viability, T/C [15] was 93.4%, the viability, T/C [16] was 105% and the viability, T/C (second compound 10 µM, first compound 0.000316 µM) was 95.4%. For the same compound, the viability, T/C (second compound 10 µM, first compound 0.001 µM) was 91.6%, the viability, T/C [17] was 86.8% and the viability, T/C [18] was 87.3%. The viability, T/C [19] was 91.2% and the viability, T/C [20] was 70.7%.

In the case of `COc1cc(C2c3cc4c(cc3C(OC3OC5COC(C)OC5C(O)C3O)C3COC(=O)C23)OCO4)cc(OC)c1O` (stereo not given) + NC1CCC(NC2CC2c2ccccc2)CC1, the IC50 (second compound 0.1 µM) is reported as > 3000 nM, the IC50 (second compound 0.316 µM) is reported as > 3000 nM and the IC50 (second compound 1 µM) is reported as > 3000 nM. For the same compound, the IC50 (second compound 3.16 µM) was > 3000 nM, the IC50 (second compound 10 µM) was > 3000 nM and the viability, T/C [21] was 105%. For the same compound, the viability, T/C [22] was 89.8%, the viability, T/C [23] was 67.3% and the viability, T/C [24] was 69.4%. It also gave a viability, T/C (second compound 0.1 µM, first compound 0.949 µM) of 70.3%, a viability, T/C (second compound 0.1 µM, first compound 3 µM) of 66.4% and a viability, T/C [25] of 102%. The viability, T/C [26] was 76.3%, the viability, T/C [27] was 85.4% and the viability, T/C [28] was 85.8%. It also gave a viability, T/C (second compound 0.316 µM, first compound 0.949 µM) of 74%, a viability, T/C (second compound 0.316 µM, first compound 3 µM) of 60.7% and a viability, T/C [29] of 90.8%. It also gave a viability, T/C [30] of 95.3%, a viability, T/C [31] of 76% and a viability, T/C [32] of 68.7%. For the same compound, the viability, T/C (second compound 1 µM, first compound 0.949 µM) was 94.1%, the viability, T/C (second compound 1 µM, first compound 3 µM) was 85.2% and the viability, T/C [33] was 82.6%. It also gave a viability, T/C [34] of 87.3%, a viability, T/C [35] of 85.1% and a viability, T/C [36] of 71.6%. It also gave a viability, T/C (second compound 3.16 µM, first compound 0.949 µM) of 69.1%, a viability, T/C (second compound 3.16 µM, first compound 3 µM) of 95.3% and a viability, T/C [37] of 73.8%. It also gave a viability, T/C [38] of 81.6%, a viability, T/C [39] of 75.3% and a viability, T/C [40] of 82%. For the same compound, the viability, T/C (second compound 10 µM, first compound 0.949 µM) was 65.5% and the viability, T/C (second compound 10 µM, first compound 3 µM) was 56.7%.

For `Nc1ccn(C2OC(CO)C(O)C2(F)F)c(=O)n1` (stereo not given) + NC1CCC(NC2CC2c2ccccc2)CC1, the IC50 (second compound 0.1 µM) was > 300 nM, the IC50 (second compound 0.316 µM) was > 300 nM and the IC50 (second compound 1 µM) was > 300 nM. The IC50 (second compound 3.16 µM) was > 300 nM, the IC50 (second compound 10 µM) was > 300 nM and the viability, T/C (second compound 0.1 µM, first compound 0.000949 µM) was 96%. It also gave a viability, T/C (second compound 0.1 µM, first compound 0.003 µM) of 94.2%, a viability, T/C [21] of 94.2% and a viability, T/C [22] of 95.3%. For the same compound, the viability, T/C [23] was 94.7%, the viability, T/C [24] was 105% and the viability, T/C (second compound 0.316 µM, first compound 0.000949 µM) was 89.9%. The viability, T/C (second compound 0.316 µM, first compound 0.003 µM) was 92%, the viability, T/C [25] was 93.6% and the viability, T/C [26] was 85.8%. It also gave a viability, T/C [27] of 84.2%, a viability, T/C [28] of 106% and a viability, T/C (second compound 1 µM, first compound 0.000949 µM) of 98.3%. For the same compound, the viability, T/C (second compound 1 µM, first compound 0.003 µM) was 93.7%, the viability, T/C [29] was 95.4% and the viability, T/C [30] was 80.9%. It also gave a viability, T/C [31] of 108%, a viability, T/C [32] of 85.6% and a viability, T/C (second compound 3.16 µM, first compound 0.000949 µM) of 79.8%. For the same compound, the viability, T/C (second compound 3.16 µM, first compound 0.003 µM) was 81%, the viability, T/C [33] was 91.8% and the viability, T/C [34] was 87.9%. The viability, T/C [35] was 85.8%, the viability, T/C [36] was 88.7% and the viability, T/C (second compound 10 µM, first compound 0.000949 µM) was 88.7%. The viability, T/C (second compound 10 µM, first compound 0.003 µM) was 71.1%, the viability, T/C [37] was 87% and the viability, T/C [38] was 79.4%. For the same compound, the viability, T/C [39] was 76.4% and the viability, T/C [40] was 92.6%.

With `Nc1ncn(C2CC(O)C(CO)O2)c(=O)n1` (stereo not given) + NC1CCC(NC2CC2c2ccccc2)CC1 the IC50 (second compound 0.1 µM) was > 1000 nM, the IC50 (second compound 0.316 µM) was > 1000 nM and the IC50 (second compound 1 µM) was > 1000 nM. For the same compound, the IC50 (second compound 3.16 µM) was > 1000 nM, the IC50 (second compound 10 µM) was > 1000 nM and the viability, T/C [1] was 98.7%. It also gave a viability, T/C [2] of 97.8%, a viability, T/C [3] of 103% and a viability, T/C [4] of 108%. The viability, T/C (second compound 0.1 µM, first compound 0.316 µM) was 95.4%, the viability, T/C (second compound 0.1 µM, first compound 1 µM) was 102% and the viability, T/C [5] was 82.7%. For the same compound, the viability, T/C [6] was 99.4%, the viability, T/C [7] was 96.6% and the viability, T/C [8] was 107%. It also gave a viability, T/C (second compound 0.316 µM, first compound 0.316 µM) of 89.7%, a viability, T/C (second compound 0.316 µM, first compound 1 µM) of 96.5% and a viability, T/C [9] of 96.9%. The viability, T/C [10] was 110%, the viability, T/C [11] was 97.5% and the viability, T/C [12] was 81.1%. For the same compound, the viability, T/C (second compound 1 µM, first compound 0.316 µM) was 83.2%, the viability, T/C (second compound 1 µM, first compound 1 µM) was 97.3% and the viability, T/C [13] was 100%. The viability, T/C [14] was 97.5%, the viability, T/C [15] was 93.1% and the viability, T/C [16] was 91.8%. For the same compound, the viability, T/C (second compound 3.16 µM, first compound 0.316 µM) was 103%, the viability, T/C (second compound 3.16 µM, first compound 1 µM) was 95.3% and the viability, T/C [17] was 87.2%. The viability, T/C [18] was 86%, the viability, T/C [19] was 91.8% and the viability, T/C [20] was 82.4%. The viability, T/C (second compound 10 µM, first compound 0.316 µM) was 84.7% and the viability, T/C (second compound 10 µM, first compound 1 µM) was 76.1%.
